ChEMBL document CHEMBL1148933, “Tetradehydrohalicyclamine A and 22-hydroxyhalicyclamine A, new cytotoxic bis-piperidine alkaloids from a marine sponge Amphimedon sp” (J Nat Prod, 2004)

Test system: P388
Assay: Cytotoxicity against mouse P388 cells
Format: functional, cell-based

| Structure (SMILES) | IC50 |
| --- | --- |
| C1=C2CCCC/C=C\C=C\CCN3CC[C@@H]4[C@H](CCCCCC/C=C\C=C/CCN(C2)C[C@H]14)C3.O=C(O)C(F)(F)F.O=C(O)C(F)(F)F [HALICYCLAMINE A TFA] | 0.45 µg/mL |
| C1=C\CCCCCC[C@@H]2CN3CC/C=C/C=C\CCCCc4cc(c[n+](c4)CC\C=C/1)[C@@H]2CC3.O=C(O)C(F)(F)F.O=C([O-])C(F)(F)F [TETRADEHYDROHALICYCLAMINE A] | 2.2 µg/mL |
